Source: patent US12419308B2, “Phenylpyrazole insecticide compounds and compositions” (priority 2023, dated 2025)
Read-outs that look alike come from different tables or passages of the source.

Experiments:
[1] = Egg concentration analysis from topically treated chickens; assay type: in vivo; details: eggs from Day 5
Protocol: One animal is left untreated as a negative control.
A modified and optimized QuEChERS protocol was employed to extract the compounds from eggs. The shell is manually removed, and then each egg is transferred to a clean beaker and homogenized with an electric mixer for small volumes. 5 grams of homogenized egg is put into a 50 mL Falcon tube, and 5 mL of water is added and the samples are shaken for 10 minutes. Next, 10 mL of acetonitrile is added and the samples are shaken again for 10 minutes. Then the roQ salts (4.0 g MgSO4, 1.0 g NaCl, 1.0 SCTD and 0.5 g SCDS, Phenomenex P/N KS08909) are added to each sample, and the mixture is well shaken for 10 minutes. Samples are then centrifuged at 2500 g for 5 minutes at room temperature, and the supernatant is transferred to an HPLC vial for analysis. The same HPLC-MS method is used as described above.
One egg from two chickens is analyzed: one chicken treated with Fipronil and one chicken treated with the Compound of Example 1. The eggs are both from Day 5. The results are shown in the following tables expressed as relative LC-MS peak area: […]

[2] = tested on: Human Cryopreserved Hepatocytes; experiment: Metabolic stability in human cryopreserved hepatocytes; assay type: in vitro ADME
Protocol: The metabolic stability of the Compounds of Examples 1 and 4 is therefore evaluated to determine whether metabolic degradation results in metabolites of concern.
Briefly, Human Cryopreserved Hepatocytes (Gibco, lot. HUE125) are added to incubation wells in a 96-well assay plate at a density of 500,000 cells/mL in William's E Medium. […] The wells are incubated at 37° C. and stop solution is added to wells at time points: 0, 30, 60, 120, 240 min. The stop solution is ice-cold solution containing 0.5 μM labetalol in acetonitrile (100 μL/well) (2:1, vol/vol). Each time point is tested in triplicate. Analysis is carried out by LC-MS.
• Instrument: QExactive • Column: Luna Omega 1.6 μm polar C18 100 Å (150×2.1 mm) • Column temperature: 40° C. • Column No: 102+pre-column installed • Injection volume: 2 μl • Flux: 0.40 mL/min • Polarity: Negative • Fluent A: water Milli Q+0.1% FA • Fluent B: ACN+0.1% FA • Acquisition method: Full MS+DDS on the IL obtained with MassMetaSite (peak others ON).

[3] = tested on: adult worker honeybees, Apis mellifera L; details: contact
Text: In accordance with OECD Test Guidelines No. 213 and 214, the test is considered valid if: (1) the average mortality of the control groups is ≤10% at the end of the test; and the average, control-corrected mortality of the reference item groups is ≥50% at the end of the test, at the tested dose (internal validity criteria according to POS BT200).
Young Apis mellifera L. worker honeybees are randomly collected in the morning of use or the day before from an adequately fed, healthy diseases-free and queen right beehive, not treated with chemical substances. Hives from an established apiary colony are used, and the colonies are inspected periodically, according to standard bee-keeping practices. All colonies are kept outside under field conditions and bees collect food from the environment. The last treatment against Varroa mites was done in November 2023. The bees are fed ad libitum with a water sucrose solution 50% w/v (or 500 g/L), prepared with tap water.
Adult worker honeybees are exposed to three increasing doses of the test item (see Table 2) by direct application to the thorax (droplets, see section 4.5.2). One control group is treated with propanol-water solution (ratio 80%-20%) in addition to test item groups.
Bee mortality is recorded after 4, 24 and 48 hours, and compared with the control value. If the mortality rate increases by more than 10% between 24 and 48 hours, whilst the control mortality rate remains ≤10%, the is extended to a maximum of 96 hours.
The test item is diluted in propanol-water solution (ratio 80%-20%) to prepare the contact solutions.
The bees used for the contact test are anaesthetized with carbon dioxide and individually treated by topical application of 2 μL of the test solutions onto the thorax using a micro applicator. The honeybees are then be moved to the cages and fed ad libitum with sucrose solution.
Disposable and well-ventilated cages with an internal volume not lower than 200 cm^3 are used. Each cage is equipped with a transparent lid, for a suitable observation of the bees from outside. The upper side of the cage has at least one hole for inserting the feeder: a syringe filled of 50% (w/v) aqueous sucrose solution is inserted in one hole.
The tests are conducted under the following conditions: (a) Temperature: 25.00[…]; (b) Relative humidity: 60.00[…], The honeybees are kept under constant darkness except during the assessments. Throughout the experimental phase, the temperature and relative humidity is continuously recorded with a dedicated data-logger with sensors located close to the test units.
The number of dead honeybees per cage is recorded after 4, 24 and 48 hours. If a prolonged observation period is required, further assessments are made every 24 hours, tip to a maximum duration of 96 hours. The amount of diet consumed per group is quantitatively estimated if treated diet will be left after 6 hours of exposure.
Data is summarized in tabular form, showing the number of live, dead and abnormal bees per experimental group. The mortality of each replicate is calculated as a percentage, comparing the number of dead bees to those introduced at the beginning. The mean value of the treated group is compared to the mean mortality of the respective control group(s) using the Abbott's formula modified by Schneider-Orelli (POS BT 200): […]

[4] = human hepatocytes, up to 240 min, 1 μM

## N#Cc1nn(-c2c(Cl)cc(C(F)(F)F)cc2Cl)c2nc(O)cc(C(F)(F)F)c12 [Example 1, 1-(2,6-dichloro-4-(trifluoromethyl)phenyl)-6-hydroxy-4-(trifluoromethyl)-1H-pyrazolo[3,4-b]pyridine-3-carbonitrile]
[1]
  Accumulation in eggs of treated chickens compared to Fipronil: substantially less accumulation in the eggs
[2]; after 240 minutes, 1 μM, 500,000 cells/mL, 37° C.
  Original compound still present: approximately 95.5%
[2]; [4]
  Metabolic stability (in words): metabolically stable
  Metabolite peaks observed: no particular peaks indicative of metabolites
[3]; group T1, dose 0.002 μg/bee
  % CM (4 hours): 0.0%
  % CM (24 hours): 7.1%
  % CM (48 hours): 0.0%
[3]; group T2, dose 0.004 μg/bee
  % CM (4 hours): 0.0%
  % CM (24 hours): 0.0%
  % CM (48 hours): 0.0%
[3]; group T3, dose 0.006 μg/bee
  % CM (4 hours): 0.0%
  % CM (24 hours): 50.0%
  % CM (48 hours): 57.7%
